Experimental data as given in PubChem BioAssay AID248 (DTP/NCI, 2004).
Inconclusive results and toxic doses are left out. No stated cut-off is given here; in the data, active means T/C of 150% or more; inactive means T/C below 125%.

System: L1210 leukemia ip in BDF1 mice, survival T/C
Experiment: NCI In Vivo Anticancer Drug Screen. Data for tumor model L1210 Leukemia (intraperitoneal) in B6D2F1 (BDF1) mice
Settings: endpoint: mean survival time, higher = longer survival
Method in brief: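 Each compound was tested against a transplantable tumor grown in mice. The endpoint was survival, with treated animals benchmarked against vehicle controls as a simple ratio.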

[1] = dose: 100.0 mg/kg/injection, schedule: Q04DX003 (ip), vehicle: Klucel (hydroxypropylcellulose) (HPC)
[2] = dose: 200.0 mg/kg/injection, schedule: Q04DX003 (ip), vehicle: Klucel (hydroxypropylcellulose) (HPC)
[3] = dose: 400.0 mg/kg/injection, schedule: Q04DX003 (ip), vehicle: Klucel (hydroxypropylcellulose) (HPC)

Measured: T/C

Cc1c2c(nn1-c1ccccn1)C(=O)C=C(Nc1ccccc1)C2=O
inactive: dose: 12.5 mg/kg/injection, schedule: Q04DX002 (ip), vehicle: Klucel (hydroxypropylcellulose) (HPC) 92 % of control | dose: 25.0 mg/kg/injection, schedule: Q04DX002 (ip), vehicle: Klucel (hydroxypropylcellulose) (HPC) 96 % of control | dose: 50.0 mg/kg/injection, schedule: Q04DX002 (ip), vehicle: Klucel (hydroxypropylcellulose) (HPC) 92 % of control | dose: 400.0 mg/kg/injection, schedule: Q04DX002 (ip), vehicle: Klucel (hydroxypropylcellulose) (HPC) 90 % of control

CC/C(=N/OC(=O)N(C)C)c1ccccc1
inactive: dose: 100.0 mg/kg/injection, schedule: Q01DX001 (ip), vehicle: saline 96 % of control | dose: 200.0 mg/kg/injection, schedule: Q01DX001 (ip), vehicle: saline 100 % of control | dose: 400.0 mg/kg/injection, schedule: Q01DX001 (ip), vehicle: saline 104 % of control

CC(=O)C(CCC#N)(CCC#N)C(=O)Nc1ccccc1
inactive: [1] 97 % of control | [2] 98 % of control | [3] 95 % of control

CC12CC(C(=O)c3ccccc3)C(C)(C1=O)C(c1ccccc1)=C2c1ccccc1 (centres undefined)
inactive: dose: 100.0 mg/kg/injection, schedule: Q04DX003 (ip), vehicle: saline with Tween-80 96 % of control | dose: 200.0 mg/kg/injection, schedule: Q04DX003 (ip), vehicle: saline with Tween-80 89 % of control | dose: 400.0 mg/kg/injection, schedule: Q04DX003 (ip), vehicle: saline with Tween-80 89 % of control

O=[N+]([O-])c1ccc(C(O)CC(O)(C(F)(F)F)C(F)(F)F)cc1 (centres undefined)
inactive: dose: 100.0 mg/kg/injection, schedule: Q01DX009 (ip), vehicle: Klucel (hydroxypropylcellulose) (HPC) 93 % of control | [1] 94 % of control | dose: 200.0 mg/kg/injection, schedule: Q01DX009 (ip), vehicle: Klucel (hydroxypropylcellulose) (HPC) 94 % of control | [2] 91 % of control | dose: 400.0 mg/kg/injection, schedule: Q01DX009 (ip), vehicle: Klucel (hydroxypropylcellulose) (HPC) 97 % of control | [3] 95 % of control

c1ccc(-c2nc(-c3ccccn3)nc(-c3ccccn3)n2)nc1
inactive: dose: 5.0 mg/kg/injection, schedule: Q01DX001 (ip), vehicle: saline 107 % of control | dose: 10.0 mg/kg/injection, schedule: Q01DX001 (ip), vehicle: saline 96 % of control | dose: 20.0 mg/kg/injection, schedule: Q01DX001 (ip), vehicle: saline 100 % of control | dose: 40.0 mg/kg/injection, schedule: Q01DX001 (ip), vehicle: saline 93 % of control | dose: 80.0 mg/kg/injection, schedule: Q01DX001 (ip), vehicle: saline 91 % of control
